# Experiments:
# Assay in all cases: relative viability (nuclei count vs DMSO), 5 days (fraction); higher = more cells survive
# OSI-027 + AZD7762 = compound: COc1cccc2cc(-c3nc([C@H]4CC[C@H](C(=O)O)CC4)n4ncnc(N)c34)[nH]c12 [OSI-027] + NC(=O)Nc1cc(-c2cccc(F)c2)sc1C(=O)N[C@H]1CCCNC1 [AZD7762] (partner 0.2 µM)
# How it was run: (§1)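 Values are medians from duplicate plates. Each reflects relative viability, defined as the nuclei count of treated wells over that of vehicle wells. Lung cancer cell lines in 1536-well plates were pin-tool dosed one day after seeding with one drug alone or with a fixed anchor-drug dose plus five library-drug doses (not always all listed) in √10 steps, then fixed, stained and imaged at 4× after 5 days.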
# OSI-027 + Decitabine = compound: COc1cccc2cc(-c3nc([C@H]4CC[C@H](C(=O)O)CC4)n4ncnc(N)c34)[nH]c12 [OSI-027] + Nc1ncn([C@H]2C[C@H](O)[C@@H](CO)O2)c(=O)n1 [Decitabine] (partner 2 µM)
# How it was run: as §1
# OSI-027 + Olaparib = compound: COc1cccc2cc(-c3nc([C@H]4CC[C@H](C(=O)O)CC4)n4ncnc(N)c34)[nH]c12 [OSI-027] + O=C(c1cc(Cc2n[nH]c(=O)c3ccccc23)ccc1F)N1CCN(C(=O)C2CC2)CC1 [Olaparib] (partner 8 µM)
# How it was run: as §1
# Alpelisib + Bortezomib = compound: Cc1nc(NC(=O)N2CCC[C@H]2C(N)=O)sc1-c1ccnc(C(C)(C)C(F)(F)F)c1 [Alpelisib] + CC(C)C[C@H](NC(=O)[C@H](Cc1ccccc1)NC(=O)c1cnccn1)B(O)O [Bortezomib] (partner 0.002 µM)
# How it was run: as §1
Cell Line,relative viability (OSI-027 + AZD7762; first compound 0.01 µM),relative viability (OSI-027 + AZD7762; first compound 0.03162 µM),relative viability (OSI-027 + AZD7762; first compound 0.1 µM),relative viability (OSI-027 + AZD7762; first compound 0.3162 µM),relative viability (OSI-027 + AZD7762; first compound 1 µM),relative viability (OSI-027 + Decitabine; first compound 0.01 µM),relative viability (OSI-027 + Decitabine; first compound 0.03162 µM),relative viability (OSI-027 + Decitabine; first compound 0.1 µM),relative viability (OSI-027 + Decitabine; first compound 0.3162 µM),relative viability (OSI-027 + Decitabine; first compound 1 µM),relative viability (OSI-027 + Olaparib; first compound 0.01 µM),relative viability (OSI-027 + Olaparib; first compound 0.03162 µM),relative viability (OSI-027 + Olaparib; first compound 0.1 µM),relative viability (OSI-027 + Olaparib; first compound 0.3162 µM),relative viability (OSI-027 + Olaparib; first compound 1 µM),relative viability (Alpelisib + Bortezomib; first compound 0.04 µM),relative viability (Alpelisib + Bortezomib; first compound 0.1265 µM),relative viability (Alpelisib + Bortezomib; first compound 0.4 µM),relative viability (Alpelisib + Bortezomib; first compound 1.265 µM),relative viability (Alpelisib + Bortezomib; first compound 4 µM)
LC-2-ad,0.835,0.77,0.879,0.894,0.615,0.827,0.842,0.779,0.735,0.578,0.774,0.721,0.836,0.87,0.737,1.05,1.01,1.09,0.955,0.844
HOP-62,0.611,0.47,0.33,0.587,0.284,0.216,0.231,0.252,0.257,0.214,0.605,0.68,0.456,0.594,0.167,0.749,0.397,0.986,0.811,0.807
NCI-H650,0.925,1.06,0.955,0.902,0.375,0.303,0.317,0.288,0.3,0.276,0.406,0.38,0.364,0.337,0.219,0.728,0.563,0.881,0.573,0.58
NCI-H1651,0.471,0.415,0.425,0.465,0.417,0.629,0.553,0.576,0.561,0.515,0.199,0.173,0.178,0.189,0.186,0.913,0.921,0.913,0.886,0.745
